Data from patent publication US20250066347A1, “SUBSTITUTED THIAZOLIDINEDIONE DERIVATIVE COMPOUND, AND PHARMACEUTICAL COMPOSITION FOR PREVENTING OR TREATING CANCER, COMPRISING SAME” (MEDIFIC, INC., priority 2021, published 2025).
“And” between values parts separate entries of the source, which are not always exact repeats. Identical values can stand only once. Like-named read-outs stand apart in the source and are kept apart here.

Legend:
SREBP = experiment: Cell-based assay system using a 6xSRE reporter vector (copGFP intensity) in HOG-GSC-6xSRE-copGFP_HIGH cells; set-up: dose or concentration left out as unconfirmed; conditions: copGFP intensity normalized to DMSO control = 1, 72 hours
Text: First, as shown in (a) of FIG. 1, SRE(5′-ATCACCCCAC-3′) 6 copies which are DNA seCuences to which a transcription factor, SREBP active form bonds were inserted into a minimal CMV promoter 5′ front end of a pGreenfire-Lenti-reporter vector to produce a 6xSRE reporter vector. The 6xSRE reporter vector is a vector system in which a minimal CMV promoter is activated only when SREBP in an activated form bonds to 6xSRE and copGFP is expressed, and after the vector was introduced to HOG-GSC which is a brain tumor stem cell, separation into a GFP high cell and a GFP low cell through FACS sorting was performed. Each of SREBP1a and SREBP1c in an active form was overexpressed in separated GFP-low cells (b of FIG. 1), and it was measured therefrom whether the expression amount of GFP was increased. As a result, it was confirmed that the overexpression of SREBP1a and SREBP1c active forms increased GFP expression by 43.30% and 93.49%, in separated GFP-low cells (c of FIG. 1). The separated GFP-high cells were treated with each of fatostatin and FGH10019 known to inhibit activity of DMSO and SREBP which was a control group to measure a change in the expression amount of GFP, and, as a result, it was confirmed that when treated with known materials, fatostatin and FGH10019, the expression of GFP was inhibited by up to 50% (d of FIG. 1).
HOG-GSC-6xSRE-copGFP_HIGH cells were dispensed into a 96-well plate (Corning) at 5000/well, each well was treated […], and then all wells were photographed every 3 hours for 72 hours in an incubator (ThermoFisher) at […], 5% CO2, using real-time cell imaging equipment (Incucyte) to photograph changes in copGFP intensity.

[1] = In vivo brain tissue distribution test after oral administration; conditions: mouse; for Kp / Cmax / Tmax / AUC(0-inf) / AUC(0-t) / MRT inf / half-life: Hsd:ICR(CD-1R); for Kp: brain/plasma, po, 25 mg/kg, PO; for AUC(0-inf): read-out: AUCinf, Mean; for AUC(0-t): read-out: AUClast, Mean; for MRT inf: read-out: MRTinf, Mean; for half-life: read-out: t1/2, Mean (converted)
Procedure: • Test drug: Compound 11 • Excipient: 20% hydroxypropyl-β-cyclodextrin aqueous solution to which 1% DMSO was added 2.2. Experimental system • Mouse, Hsd:ICR(CD-1R), SPF […] (7 weeks old at the time of administration)
After obtaining the mouse, the mouse was quarantined and acclimatized for 2 weeks, and used in the experiment. An administration dose was 25 mg/kg. A dosage for each individual was calculated based on the weight after fasting for 15 hours (on the day of administration), and the drug was orally administered once using a disposable syringe (1 mL) with a zonde for oral administration attached.
After respiratory anesthesia, blood was collected by heart blood collection with a 1 mL syringe, placed in a K2-EDTA-treated tube, and centrifuged at 8,000 RPM at 4° C. for 20 minutes, and plasma was collected from a supernatant. Heat perfusion was performed on animals after blood collection, a brain tissue was harvested, and olfactory bulb, cerebellum, pones, and medulla oblongata were removed from the harvested brain tissue. The collected plasma and brain tissue were frozen and stored at −80° C. until analysis.
In order to secure a sufficient amount of analysis sample, a mixed (pulled) sample of brain tissue and blood secured from two individuals was used (securing three repetitive samples from 6 animals in one collection). Blood plasma and brain tissue were collected from a mouse of the same week of age to which the compound was not administered, and used as a blank blood plasma and a blank tissue in the material concentration analysis.
190 μL of acetonitrile was added to 10 μL of a blood plasma sample including 200 ng/mL of the internal standard material and vortexed at 2,500 RPM for 60 seconds. Thereafter, centrifugation was performed at 12,000 RPM for 5 minutes, and 50 μL of a supernatant was taken and mixed with 50 μL of acetonitrile. 2 μL thereof was injected into LC-MS/MS.
The brain tissue was weighed, third distilled water equivalent to 4 times (w/v=¼) the weight was added, and homogenization was performed using a homogenizer. 10 μL of the homogenized tissue mixed solution was taken, 190 μL of acetonitrile including 50 ng/mL of the internal standard material was added, and vortexing was performed at 2,500 RPM for 60 seconds. Thereafter, centrifugation was performed at 12,000 RPM for 10 minutes, and 2 μL of a supernatant was taken and injected into LC-MS/MS.
PK parameter was calculated with a Non-compartmental analysis model using a PKSolver2.0 software.

[2] = test system: HOG-GSC brain tumor stem cell line; experiment: In vivo efficacy evaluation, HOG-GSC orthotopic xenograft model; set-up: species or system BALB/c nude mouse; conditions: 25 mg/kg/day oral, day 16 after tumor transplantation
Text: First, HOG-GSC which is a brain tumor stem cell line was transplanted to a caudate putamen in the brain of a BALB/c nude mouse to establish am orthotropic xenograft model. After transplanting the brain tumor stem cells, the implementation compound of the present invention was orally administered from day 7 for 3 weeks with a schedule of 5 days of administration and 2 days of off medication, and only excipient was administration in the same manner to the control group. Thereafter, based on clinical findings resulting from the growth of the brain tumor in the animals, the survival period of the mouse was investigated, thereby confirming that the death of the animal due to a tumor was delayed by the administration of the implementation compound of the present invention. In addition, both the control mouse and the mouse to which the implementation compound of the present invention was administered were euthanized on day 16 after transplanting the tumor, their brain tissues were harvested, and the sizes of the brain tumor on the same date were compared.

Compound: CC(C)(C)c1ccc(-c2cc(/C=C3\SC(=O)NC3=O)ccn2)cc1 [Compound 11, (Z)-5-((2-(4-(tert-butyl)phenyl)pyridin-4-yl)methylene)thiazolidine-2,4-dione]
- activity (SREBP): 4.6%
- Kp ([1]; read-out: Brain-to-plasma ratio by AUC (brain/plasma)): 0.543
- Kp ([1]; read-out: Brain-to-plasma ratio by concentration (brain/plasma), Average): 0.47
- Kp ([1]; read-out: Brain-to-plasma ratio by concentration (brain/plasma), Max): 0.777
- Cmax ([1]; Brain (25 mg/kg, PO)): 12600 ng/mL
- Tmax ([1]; Brain (25 mg/kg, PO)): 3 h
- AUC(0-inf) ([1]; Brain (25 mg/kg, PO)): 96.8 µg·h/mL
- AUC(0-t) ([1]; Brain (25 mg/kg, PO)): 96 µg·h/mL
- MRT inf ([1]; Brain (25 mg/kg, PO)): 6 h
- half-life ([1]; Brain (25 mg/kg, PO)): 2.83 h
- Cmax ([1]; Plasma (25 mg/kg, PO)): 20400 ng/mL
- Tmax ([1]; Plasma (25 mg/kg, PO)): 1.33 h
- AUC(0-inf) ([1]; Plasma (25 mg/kg, PO)): 180 µg·h/mL
- AUC(0-t) ([1]; Plasma (25 mg/kg, PO)): 177 µg·h/mL
- MRT inf ([1]; Plasma (25 mg/kg, PO)): 6.95 h
- half-life ([1]; Plasma (25 mg/kg, PO)): 3.08 h
- Clobs, Mean ([1]; Plasma (25 mg/kg, PO)): 2.320 mL/min/kg
- Vzobs, Mean ([1]; Plasma (25 mg/kg, PO)): 0.617 L/kg
- Tumor cross-sectional area/brain cross-sectional ratio, Average [2]: 0.02186
- Tumor cross-sectional area/brain cross-sectional ratio, individual [2]: 0.04373 and 0
